In patent US10919914B2, “Heterocyclic compounds and uses thereof” (Infinity Pharmaceuticals, Inc., priority 2016, dated 2021):
pIC50: −log10 of the molar value.

What was measured:
PI3K γ = PI3K γ (Homo sapiens (Human), UniProt P48736); experiment: PI3-Kinase HTRF assay; format: biochemical
Excerpt: The biotinylated PIP3 and the GST-tagged PH domain recruited fluorophores (Streptavidin-Allophycocyanin and Europium-labeled anti-GST respectively) to form the fluorescence resonance energy transfer (FRET) architecture, generating a stable time-resolved FRET signal.
Other commercial kits or systems for assaying PI3-K activities are available. […] An exemplary system is PI 3-Kinase (human) HTRF™ Assay from Upstate. […] Briefly, the assay is a time resolved FRET assay that indirectly measures PIP3 product formed by the activity of a PI3-K. The kinase reaction is performed in a microtiter plate (e.g., a 384 well microtiter plate). […] The plate is sealed and incubated for 15 minutes at room temperature. […] The plate is sealed and incubated for 1 hour at room temperature. […] The plate is sealed, incubated for 1 hour at room temperature, and then read on an appropriate plate reader. Data is analyzed and IC50s are generated using GraphPad Prism 5.

PI3K δ = PI3K δ (Homo sapiens (Human), UniProt O00329); experiment: PI3-Kinase HTRF assay; format: biochemical
Excerpt: A PI3-Kinase HTRF® assay kit (cat No. 33-016) purchased from Millipore Corporation is used to screen compounds provided herein. This assay uses specific, high affinity binding of the GRP1 pleckstrin homology (PH) domain to PIP3, the product of a Class 1A or 1B PI3 Kinase acting on its physiological substrate PIP2. During the detection phase of the assay, a complex is generated between the GST-tagged PH domain and biotinylated short chain PIP3. The biotinylated PIP3 and the GST-tagged PH domain recruited fluorophores (Streptavidin-Allophycocyanin and Europium-labeled anti-GST respectively) to form the fluorescence resonance energy transfer (FRET) architecture, generating a stable time-resolved FRET signal. The FRET complex is disrupted in a competitive manner by non-biotinylated PIP3, a product formed in the PI3 Kinase assay.
PI3 Kinase α, γ or δ activity is assayed using the PI3 Kinase HTRF® assay kit (catalogue No. 33-016) purchased from Millipore Corporation. Purified recombinant PI3Kα (catalogue No. 14-602-K), PI3Kβ (catalogue No. 14-603-K), PI3Kγ (catalogue No. 14-558-K), and PI3Kδ (catalogue No. 14-604-K) are obtained from Millipore Corporation. Purified recombinant PI3K enzyme is used to catalyze the phosphorylation of phosphatidylinositol 4,5-bisphosphate (PIP2 at 10 μM) to phosphatidylinositol 3,4,5-trisphosphate (PIP3) in the presence of 10 μM ATP. The assay is carried out in 384-well format and detected using a Perkin Elmer EnVision Xcite Multilabel Reader. Emission ratios are converted into percent inhibitions and imported into GraphPad Prism software. […] IC50 values are determined using a nonlinear regression model available in GraphPad Prism 5.
Other commercial kits or systems for assaying PI3-K activities are available. The commercially available kits or systems can be used to screen for inhibitors and/or agonists of PI3-Ks including, but not limited to, PI 3-Kinase α, β, δ, and γ. […] The plate is sealed, incubated for 1 hour at room temperature, and then read on an appropriate plate reader. Data is analyzed and IC50s are generated using GraphPad Prism 5.

[1] = system: PI3K/Akt/mTOR signaling (phosphorylation of Akt-S473 and S6); experiment: Kinase signaling in blood (phosflow); format: cell-based; conditions: anti-CD3 stimulated splenocytes or peripheral blood mononuclear cells
Description: PI3K/Akt/mTOR signaling is measured in blood cells using the phosflow method (Methods Enzymol. (2007) 434:131-54). This method is by nature a single cell assay so that cellular heterogeneity can be detected rather than population averages. This allows concurrent distinction of signaling states in different populations defined by other markers. Phosflow is also highly quantitative. To test the effects of one or more compounds provided herein, unfractionated splenocytes, or peripheral blood mononuclear cells are stimulated with anti-CD3 to initiate T-cell receptor signaling. The cells are then fixed and stained for surface markers and intracellular phosphoproteins. […]
Similarly, aliquots of whole blood are incubated for 15 minutes with vehicle (e.g., 0.1% DMSO) or kinase inhibitors at various concentrations, before addition of stimuli to crosslink the T cell receptor (TCR) (anti-CD3 with secondary antibody) or the B cell receptor (BCR) using anti-kappa light chain antibody (Fab′2 fragments). […] The level of phosphorylation of kinase substrates such as Akt and S6 are then measured by incubating the fixed cells with labeled antibodies specific to the phosphorylated isoforms of these proteins. The population of cells are then analyzed by flow cytometry.

Sequence of PI3K δ (O00329 whole entry, the tested form may be a part): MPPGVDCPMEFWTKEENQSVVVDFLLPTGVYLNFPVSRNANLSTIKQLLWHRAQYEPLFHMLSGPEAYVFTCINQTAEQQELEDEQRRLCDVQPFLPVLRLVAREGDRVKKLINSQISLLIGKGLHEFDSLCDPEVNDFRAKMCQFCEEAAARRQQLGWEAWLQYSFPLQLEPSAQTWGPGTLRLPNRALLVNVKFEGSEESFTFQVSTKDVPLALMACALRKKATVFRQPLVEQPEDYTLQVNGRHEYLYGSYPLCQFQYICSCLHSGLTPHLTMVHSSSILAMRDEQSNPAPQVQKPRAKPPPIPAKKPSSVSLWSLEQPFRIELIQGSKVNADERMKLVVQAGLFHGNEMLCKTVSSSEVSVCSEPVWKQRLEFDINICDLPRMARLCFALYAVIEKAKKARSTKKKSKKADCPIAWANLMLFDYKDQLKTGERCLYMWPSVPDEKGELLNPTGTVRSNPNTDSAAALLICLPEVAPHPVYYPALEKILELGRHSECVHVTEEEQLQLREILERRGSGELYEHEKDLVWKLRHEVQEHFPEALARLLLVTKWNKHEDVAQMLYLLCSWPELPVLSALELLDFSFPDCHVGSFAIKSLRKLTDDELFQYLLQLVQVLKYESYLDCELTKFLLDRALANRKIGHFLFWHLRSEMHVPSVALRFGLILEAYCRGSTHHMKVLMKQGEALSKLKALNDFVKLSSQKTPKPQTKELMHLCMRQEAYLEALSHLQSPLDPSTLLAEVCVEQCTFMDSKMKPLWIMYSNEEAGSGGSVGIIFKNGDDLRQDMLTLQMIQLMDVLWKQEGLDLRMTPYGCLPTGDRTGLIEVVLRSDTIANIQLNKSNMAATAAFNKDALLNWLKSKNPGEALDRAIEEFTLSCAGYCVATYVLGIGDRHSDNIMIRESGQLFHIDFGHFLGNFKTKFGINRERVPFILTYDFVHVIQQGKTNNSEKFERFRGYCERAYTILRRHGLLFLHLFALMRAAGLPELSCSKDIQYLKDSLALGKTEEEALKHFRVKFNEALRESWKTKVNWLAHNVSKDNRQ
Sequence of PI3K δ (P27986 whole entry partner, the tested form may be a part): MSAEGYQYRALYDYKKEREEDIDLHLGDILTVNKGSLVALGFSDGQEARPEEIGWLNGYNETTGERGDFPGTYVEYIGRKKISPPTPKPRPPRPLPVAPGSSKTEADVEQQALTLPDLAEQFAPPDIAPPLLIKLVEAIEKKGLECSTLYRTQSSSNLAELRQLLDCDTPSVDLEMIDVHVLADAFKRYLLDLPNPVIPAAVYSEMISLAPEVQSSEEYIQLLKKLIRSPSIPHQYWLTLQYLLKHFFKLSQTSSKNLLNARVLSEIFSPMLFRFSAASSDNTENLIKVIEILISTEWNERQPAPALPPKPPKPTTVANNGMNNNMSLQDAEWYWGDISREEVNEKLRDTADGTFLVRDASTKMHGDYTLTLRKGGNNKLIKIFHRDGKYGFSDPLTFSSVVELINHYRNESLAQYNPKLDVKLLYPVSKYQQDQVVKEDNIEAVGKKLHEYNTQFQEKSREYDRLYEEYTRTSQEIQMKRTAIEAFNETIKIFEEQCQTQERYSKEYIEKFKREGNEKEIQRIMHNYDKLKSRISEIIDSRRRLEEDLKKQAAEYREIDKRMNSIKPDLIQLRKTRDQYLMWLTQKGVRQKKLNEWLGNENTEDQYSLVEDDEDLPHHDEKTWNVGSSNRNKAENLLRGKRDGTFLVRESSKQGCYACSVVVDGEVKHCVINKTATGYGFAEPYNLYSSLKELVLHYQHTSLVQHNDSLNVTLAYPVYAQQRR
Sequence of PI3K γ (P48736 whole entry, the tested form may be a part): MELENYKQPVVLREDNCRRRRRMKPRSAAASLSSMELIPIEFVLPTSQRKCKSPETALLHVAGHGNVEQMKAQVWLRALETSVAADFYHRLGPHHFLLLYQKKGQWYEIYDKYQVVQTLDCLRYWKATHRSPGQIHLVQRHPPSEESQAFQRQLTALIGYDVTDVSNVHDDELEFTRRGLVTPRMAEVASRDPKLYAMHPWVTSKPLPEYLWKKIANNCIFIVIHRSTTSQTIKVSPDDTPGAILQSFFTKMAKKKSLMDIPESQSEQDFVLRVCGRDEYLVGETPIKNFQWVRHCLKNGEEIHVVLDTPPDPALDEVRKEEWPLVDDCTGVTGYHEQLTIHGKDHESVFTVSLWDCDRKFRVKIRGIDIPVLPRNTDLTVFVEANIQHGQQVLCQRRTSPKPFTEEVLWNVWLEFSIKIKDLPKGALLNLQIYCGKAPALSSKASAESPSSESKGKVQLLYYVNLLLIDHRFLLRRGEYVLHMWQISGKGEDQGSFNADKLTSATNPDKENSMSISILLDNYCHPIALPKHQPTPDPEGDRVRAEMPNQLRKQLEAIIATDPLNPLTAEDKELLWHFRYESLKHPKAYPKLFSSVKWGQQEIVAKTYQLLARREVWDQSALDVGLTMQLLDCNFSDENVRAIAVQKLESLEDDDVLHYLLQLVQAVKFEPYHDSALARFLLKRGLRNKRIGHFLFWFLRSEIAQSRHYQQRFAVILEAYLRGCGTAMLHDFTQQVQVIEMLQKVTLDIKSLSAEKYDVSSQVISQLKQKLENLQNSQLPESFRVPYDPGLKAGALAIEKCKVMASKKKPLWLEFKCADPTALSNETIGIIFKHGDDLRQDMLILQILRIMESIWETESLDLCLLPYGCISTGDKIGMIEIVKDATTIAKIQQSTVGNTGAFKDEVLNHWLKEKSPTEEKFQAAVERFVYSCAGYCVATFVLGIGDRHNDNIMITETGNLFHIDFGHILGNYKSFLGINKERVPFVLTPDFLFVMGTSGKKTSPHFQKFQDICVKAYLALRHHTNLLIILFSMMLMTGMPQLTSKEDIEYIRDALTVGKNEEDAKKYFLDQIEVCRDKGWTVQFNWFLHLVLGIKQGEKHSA

Compound	pIC50 (PI3K γ)	PI3K δ/PI3K γ IC50 (selectivity) (PI3K γ; δ/γ IC50 selectivity)	pIC50 (PI3K δ)	Akt phosphorylation (Akt-S473) [1]	S6 phosphorylation [1]
C[C@H](NC(=O)c1c(N)nn2ccccc12)c1cc2cccc(C#Cc3cnn(C)c3)c2c(=O)n1-c1ccccc1 [Compound 1]	6.30 to 7.00	Y (Y = 50 to <850)	< 5.00		
C[C@H](NC(=O)c1c(N)nn2ccccc12)c1cc2cccc(Cl)c2c(=O)n1-c1ccccc1 [Compound 31]			5.30 to 6.00		
C[C@H](NC(=O)c1c(N)ncc2ccccc12)c1cc2cccc(Cl)c2c(=O)n1-c1ccccc1 [Compound 3626]	< 5.30		< 5.00		
CO[C@H]1C[C@@H]2CC[C@@H](C)[C@@](O)(O2)C(=O)C(=O)N2CCCC[C@H]2C(=O)O[C@H]([C@H](C)C[C@@H]2CC[C@@H](O)[C@H](OC)C2)CC(=O)[C@H](C)/C=C(\C)[C@@H](O)[C@@H](OC)C(=O)[C@H](C)C[C@H](C)/C=C/C=C/C=C/1C [rapamycin]				enhances	inhibits
